Experimental findings from US4277496A, “Methods of treating mammals suffering from inflammation and pain” (Laboratorios Bago S.A., priority 1980, dated 1981) are described below.

The structures appear in SMILES notation.

The test system of data set [1] is Carrageenin induced edema. The experiment in a line: Anti-inflammatory Activity (Carrageenin induced edema test). As to conditions: for % Edema Inhibition, 1 hour / % Edema Inhibition, 3 hours / % Edema Inhibition, 5 hours: oral, 30 min before carrageenin, dose mg/kg: ASA 100, XAA 120, XAA ester 196 (eq. 120 XAA), TAA 60, TAA ester 84.5 (eq. 60 TAA); for % Edema Inhibition, 1 hour: 1 hour after carrageenin; for % Edema Inhibition, 3 hours: 3 hours after carrageenin; for % Edema Inhibition, 5 hours: 5 hours after carrageenin; for anti-inflammatory versus antinociceptive action: conclusion in words from Examples 6 and 7. The class given is in vivo, rat (male Sprague Dawley). How it is done:
Anti-inflammatory Activity (Carrageenin induced edema test)
Fifteen to twenty male rats of Sprague Dawley strain weighing 150-200 g, were employed for each compound tested. 0.1 ml of 1% carrageenin saline suspension was injected into the subplantar region of the right hind-paw. The test compounds were orally administered 30 minutes prior to the injection of carrageenin and the foot volume was determined 1,3 and 5 hours after the injection of carrageenin. The percent swelling in the foot was obtained by comparing the volume before and after the injection of carrageenin, and the rate of inhibition in the treated animals was calculated.
A general note: Carrageenan injected into the paw causes an acute inflammation.

Data set [2] concerns response threshold on applying pressure to the tail. The experiment in a line: Analgesic Activity: Tail pressure test. In kind it is in vivo, mouse (male Rockland). As to conditions: oral; 15 and 60 min after administration; relative potency (control 0, ASA 1.00); dose mg/kg: ASA 100, XAA 50, XAA ester 74 (eq. 50 XAA), TAA 50, TAA ester 82 (eq. 50 TAA). How it is done:
Tail pressure test: Ten male mice of Rockland strain weighing 20-25 g were used for each compound tested. The response threshold on applying pressure to the tail was determined with an analgesy meter at 15 and 60 minutes after oral administration of the test compound. The pressure at which a struggle was elicited was read.

Data set [3] relates to pain threshold for the inflamed feet (carrageenin). The experiment in a line: Analgesic Activity: Randall-Selitto's method. The class given is in vivo, mouse (male Rockland). As to conditions: oral, 30 min before carrageenin; hourly for 3 hours; relative potency (control 0); dose mg/kg: ASA 100, XAA 50, XAA ester 74 (eq. 50 XAA), TAA 50, TAA ester 82 (eq. 50 TAA). On the procedure:
Randall-Selitto's method: Ten male mice of Rockland strain weighing 25 g were used for each compound tested. 0.1 ml of 1% carrageenin saline suspension was injected into the subplantar region of the right foot. The test compounds were orally administered 30 minutes before the injection. At hourly intervals for 3 hours after the carrageenin injection, the pain threshold for the inflammed feet determining was measured the amount of pressure with an analgesy meter.

The next data set concerns gastric epithelium. The experiment in a line: Influence on the gastro-intestinal tract (ulceration, pylorus-ligated, method of Shay et al.). In kind it is in vivo, rat (male Sprague Dawley). As to conditions: oral, dose mg/kg: phenylbutazone 75, ASA 100, XAA 120, XAA ester 196, TAA 60, TAA ester 84.5; for Increase (of ulceration evaluation): increase over control (distilled water, 3.0), 1 hour; for Evaluation (ulceration of the gastric epithelium): 1 hour after administration, score 0=no hemorrhage sites to 6=perforated ulcer, control 3.0. How it is done:
Influence on the gastro-intestinal tract
Ten male rats of Sprague Dawley strain, weighing 200-300 g were used for each compound tested. According to the method of Shay et al. (Shay, H., Komapov, S. A., Feb. S. S., Meranir, D., Gruenstein, M., Siplet, H. Gastroenterology 5, 43, 1945), under anesthesia, the pylorus was ligated and 4 hours later test compounds were orally administered. The animal was sacrificed 1 hour after compound administration. The stomach was removed and examined for macroscopic damage. The ulceration of the gastric epithelium was evaluated by the following evaluation: 0=no hemorrhage sites; 1=some isolated hemorrhagic sites; 2=redness of the gastric epithelium; 3=1 to 5 small ulcers with a diameter smaller than 3 mm; 4=many small ulcers; 5=ulcers-greater than 3 mm; 6=perforated ulcer.

Consider `CC(=O)Oc1ccccc1C(=O)O` [Acetylsalicylic acid (ASA), Acetylsalicylic acid], for which, in data set [1], the “% Edema Inhibition, 1 hour” value amounted to 3.8%; the “% Edema Inhibition, 3 hours” value is on record as 24.8%; the “% Edema Inhibition, 5 hours” value is 25.3%. Further, the “Relative strength, Tail pressure test” value in data set [2] was 1.00. The “Relative strength, Randall-Selitto test” value in data set [3] was determined as 1.05. For the same compound, in the data set on gastric epithelium, the “Increase (of ulceration evaluation)” value is on record as 1.1 and the “Evaluation (ulceration of the gastric epithelium)” value amounted to 4.1.
As to `Cc1cccc(Nc2ccccc2C(=O)O)c1C` [N-(2',3'-xylyl) anthranylic acid (XAA), N-(2',3'-xylyl) anthranylic acid], in data set [1], the “% Edema Inhibition, 1 hour” value is on record as 19.32%; the “% Edema Inhibition, 3 hours” value worked out at 24.7%; the “% Edema Inhibition, 5 hours” value came to 23.4%. The “Relative strength, Tail pressure test” value in data set [2] is listed as 0.2. The “Relative strength, Randall-Selitto test” value in data set [3] amounted to 1.04. Besides, in the data set with gastric epithelium, the “Increase (of ulceration evaluation)” value is 1.2 and the “Evaluation (ulceration of the gastric epithelium)” value is on record as 4.2.
Regarding `O=C(O)c1ccccc1Nc1cccc(C(F)(F)F)c1` [N-(3'-trifluorotolyl)-anthranylic acid], in data set [1], the “% Edema Inhibition, 1 hour” value was 24.3%; the “% Edema Inhibition, 3 hours” value is listed as 29.3%; the “% Edema Inhibition, 5 hours” value is given as 28.3%. In data set [2], the “Relative strength, Tail pressure test” value was 0.5. Also, the “Relative strength, Randall-Selitto test” value in data set [3] is 5.3. In the data set with gastric epithelium, the “Increase (of ulceration evaluation)” value was found to be 1.9 and the “Evaluation (ulceration of the gastric epithelium)” value is given as 4.9.
Turning to `CCCCC1C(=O)N(c2ccccc2)N(c2ccccc2)C1=O` [Phenylbutazone], in the data set with gastric epithelium, the “Increase (of ulceration evaluation)” value amounted to 2.5 and the “Evaluation (ulceration of the gastric epithelium)” value amounted to 5.5.
`CC(C)(C)C(=O)OCOC(=O)c1ccccc1Nc1cccc(C(F)(F)F)c1` [Pivaloyloxymethyl N(3'-trifluorotolyl)-anthranylate]: in data set [1], the “anti-inflammatory versus antinociceptive action” value is “act as anti-inflammatory agents more than as antinociceptive agents”; the “% Edema Inhibition, 1 hour” value is recorded as 40.4%; the “% Edema Inhibition, 3 hours” value came out at 40.7%; the “% Edema Inhibition, 5 hours” value is 32.4%. Further, in data set [2], the “Relative strength, Tail pressure test” value is recorded as 1.02. In data set [3], the “Relative strength, Randall-Selitto test” value is on record as 8.7. In the data set on gastric epithelium, the “Increase (of ulceration evaluation)” value is on record as 0.6 and the “Evaluation (ulceration of the gastric epithelium)” value was 3.6.
Turning to `Cc1cccc(Nc2ccccc2C(=O)OCOC(=O)C(C)(C)C)c1C` [Pivaloyloxymethyl N-(2',3'-xylyl)anthranylate], in data set [1], the “anti-inflammatory versus antinociceptive action” value is listed as “act as anti-inflammatory agents more than as antinociceptive agents”; the “% Edema Inhibition, 1 hour” value is 33.3%; the “% Edema Inhibition, 3 hours” value came to 36.4%; the “% Edema Inhibition, 5 hours” value is given as 31.3%. Moreover, the “Relative strength, Tail pressure test” value in data set [2] was 0.48. Further, in data set [3], the “Relative strength, Randall-Selitto test” value is listed as 1.74. Moreover, in the data set on gastric epithelium, the “Increase (of ulceration evaluation)” value is listed as 0.4 and the “Evaluation (ulceration of the gastric epithelium)” value is 3.4.
